Counter-ions that a name gives are not always drawn.
These molecules were tested on Human platelet aggregation caused by ADP (assay: Inhibition of ADP-induced platelet aggregation (Mimic-human PRP)). Conditions: 20 μM ADP, human platelet concentrate diluted with PPP, absorption at 595 nm.
Type: cell-based
In short: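 Ki came from non-linear sigmoidal fits of inhibition, measured as the 3-min rise in absorbance at 595 nm after 20 μM ADP, relative to 0/20 μM ADP controls. Platelets (3–4×10^8/mL in PPP-diluted human PRP) were exposed to 0.01–30 μM compound for 20 min at room temperature beforehand.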
For `CCCc1cc2c(N3CCn4c(nnc4C(F)(F)F)C3)nc(N3CCC[C@@H](NC(=O)C(C)C)C3)nc2s1` [Example 7-8, Hydrochloric acid salt of N-{(R)-1-[6-Propyl-4-(3-trifluoromethyl-5,6-dihydro-8H-[1,2,4]triazolo[4,3-a]pyrazin-7-yl)-thieno[2,3-d]pyrimidin-2-yl]-piperidin-3-yl}-isobutyramide], the Ki was 150 nM.
Molecule `CCCc1cc2c(N3CCn4c(nnc4C(F)(F)F)C3)nc(OCCC(N)=O)nc2s1` [Example 9-70, 3-[6-Propyl-4-(3-trifluoromethyl-5,6-dihydro-8H-[1,2,4]triazolo[4,3-a]pyrazin-7-yl)-thieno[2,3-d]pyrimidin-2-yloxy]-propionamide] has a Ki of 6 nM.
Molecule `CCCC(=O)N1CCC[C@@H]1COc1nc(N2CCn3c(nnc3C(F)(F)F)C2)c2cc(CCC)sc2n1` [Example 8-29, 1-{(R)-2-[6-Propyl-4-(3-trifluoromethyl-5,6-dihydro-8H-[1,2,4]triazolo[4,3-a]pyrazin-7-yl)-thieno[2,3-d]pyrimidin-2-yloxymethyl]-pyrrolidin-1-yl}-butan-1-one] has a Ki of 170 nM.
In the case of `CCCc1cc2c(N3CCn4c(nnc4C(F)(F)F)C3)nc(N3CC[C@H](NC=O)C3)nc2s1` [Example 9-21, N-{(S)-1-[6-Propyl-4-(3-trifluoromethyl-5,6-dihydro-8H-[1,2,4]triazolo[4,3-a]pyrazin-7-yl)-thieno[2,3-d]pyrimidin-2-yl]-pyrrolidin-3-yl}-formamide], the Ki is reported as 6 nM.
Molecule `CCCc1cc2c(N3CCn4c(nnc4C(F)(F)F)C3)nc(N(C)CCNC(C)=O)nc2s1` [Example 9-40, N-(2-{Methyl-[6-propyl-4-(3-trifluoromethyl-5,6-dihydro-8H-[1,2,4]triazolo[4,3-a]pyrazin-7-yl)-thieno[2,3-d]pyrimidin-2-yl]-amino}-ethyl)-acetamide] has a Ki of 22 nM.
`CCCc1cc2c(N3CCn4c(nnc4C(F)(F)F)C3)nc(OCCC(=O)NC)nc2s1` [Example 9-66, N-Methyl-3-[6-propyl-4-(3-trifluoromethyl-5,6-dihydro-8H-[1,2,4]triazolo[4,3-a]pyrazin-7-yl)-thieno[2,3-d]pyrimidin-2-yloxy]-propionamide] gave a Ki of 5.2 nM.
For `CCCc1cc2c(N3CCn4c(nnc4C(F)(F)F)C3)nc(N3CC(NC(C)=O)C(NC(C)=O)C3)nc2s1` (stereo not shown) [Example 7-28, N-{4-Acetylamino-1-[6-propyl-4-(3-trifluoromethyl-5,6-dihydro-8H-[1,2,4]triazolo[4,3-a]pyrazin-7-yl)-thieno[2,3-d]pyrimidin-2-yl]-pyrrolidin-3-yl}-acetamide], the Ki was 42 nM.
For `CCCC(=O)N1CC[C@@H](CNc2nc(N3CCn4c(nnc4C(F)(F)F)C3)c3cc(CCC)sc3n2)C1` [Example 8-20, 1-((S)-3-{[6-Propyl-4-(3-trifluoromethyl-5,6-dihydro-8H-[1,2,4]triazolo[4,3-a]pyrazin-7-yl)-thieno[2,3-d]pyrimidin-2-ylamino]-methyl}-pyrrolidin-1-yl)-butan-1-one], the Ki was 410 nM.
`CCCc1cc2c(N3CCn4c(nnc4C(F)(F)F)C3)nc(OCCN3C(=O)CNC3=O)nc2s1` [Example 9-105, 3-{2-[6-Propyl-4-(3-trifluoromethyl-5,6-dihydro-8H-[1,2,4]triazolo[4,3-a]pyrazin-7-yl)-thieno[2,3-d]pyrimidin-2-yloxy]-ethyl}-imidazolidine-2,4-dione] was tested, and the Ki was > 3000 nM.
For `CCCc1cc2c(N3CCn4c(nnc4C(F)(F)F)C3)nc(OCCN(CC(=O)OCC)C(=O)C3CC3)nc2s1` [Example 3-56, (Cyclopropanecarbonyl-{2-[6-propyl-4-(3-trifluoromethyl-5,6-dihydro-8H-[1,2,4]triazolo[4,3-a]pyrazin-7-yl)-thieno[2,3-c]pyrimidin-2-yloxy]-ethyl}-amino)-acetic acid ethyl ester], the Ki was 75 nM.
`CCCc1cc2c(N3CCn4c(nnc4C(F)(F)F)C3)nc(N3CC(N)C(O)C3)nc2s1` (stereo not shown) [Example 1-114, 4-Amino-1-[6-propyl-4-(3-trifluoromethyl-5,6-dihydro-8H-[1,2,4]triazolo[4,3-a]pyrazin-7-yl)-thieno[2,3-d]pyrimidin-2-yl]-pyrrolidin-3-ol] gave a Ki of 3.8 nM.
`CCCc1cc2c(N3CCn4c(nnc4C(F)(F)F)C3)nc(OCCN(CCO)C(=O)OC)nc2s1` [Example 9-98, (2-Hydroxy-ethyl)-{2-[6-propyl-4-(3-trifluoromethyl-5,6-dihydro-8H-[1,2,4]triazolo[4,3-a]pyrazin-7-yl)-thieno[2,3-d]pyrimidin-2-yloxy]-ethyl}-carbamic acid methyl ester] gave a Ki of 23 nM.
With `CCCC(=O)N[C@H]1CCCN(c2nc(N3CCn4c(nnc4C(F)(F)F)C3)c3cc(CCC)sc3n2)C1` [Example 7-10, Hydrochloric acid salt of N-{(S)-1-[6-Propyl-4-(3-trifluoromethyl-5,6-dihydro-8H-[1,2,4]triazolo[4,3-a]pyrazin-7-yl)-thieno[2,3-d]pyrimidin-2-yl]-piperidin-3-yl}-butyramide] the Ki was 980 nM.
`CCCc1cc2c(N3CCn4c(nnc4C(F)(F)F)C3)nc(NC[C@H]3CCN(C(=O)C(C)C)C3)nc2s1` [Example 8-24, 2-Methyl-1-((R)-3-{[6-propyl-4-(3-trifluoromethyl-5,6-dihydro-8H-[1,2,4]triazolo[4,3-a]pyrazin-7-yl)-thieno[2,3-d]pyrimidin-2-ylamino]-methyl}-pyrrolidin-1-yl)-propan-1-one] was tested, and the Ki was 1400 nM.
In the case of `CCCC(=O)N1CCC[C@H]1COc1nc(N2CCn3c(nnc3C(F)(F)F)C2)c2cc(CCC)sc2n1` [Example 8-32, 1-{(S)-2-[6-Propyl-4-(3-trifluoromethyl-5,6-dihydro-8H-[1,2,4]triazolo[4,3-a]pyrazin-7-yl)-thieno[2,3-d]pyrimidin-2-yloxymethyl]-pyrrolidin-1-yl}-butan-1-one], the Ki is reported as 62 nM.
`CCCc1cc2c(N3CCn4c(nnc4C(F)(F)F)C3)nc(OCC(C)NC(C)=O)nc2s1` (stereo not shown) [Example 9-77, N-{1-Methyl-2-[6-propyl-4-(3-trifluoromethyl-5,6-dihydro-8H-[1,2,4]triazolo[4,3-a]pyrazin-7-yl)-thieno[2,3-d]pyrimidin-2-yloxy]-ethyl}-acetamide] showed a Ki of 6 nM.
`CCCc1cc2c(N3CCn4c(nnc4C(F)(F)F)C3)nc(N3CC(O)C(NC(=O)OC)C3)nc2s1` (stereo not shown) [Example 9-2, {4-Hydroxy-1-[6-propyl-4-(3-trifluoromethyl-5,6-dihydro-8H-[1,2,4]triazolo[4,3-a]pyrazin-7-yl)-thieno[2,3-d]pyrimidin-2-yl]-pyrrolidin-3-yl}-carbamic acid methyl ester] was tested, and the Ki was 8 nM.
For `CCCc1cc2c(N3CCn4c(nnc4C(F)(F)F)C3)nc(N[C@@H]3CCN(C(=O)C(C)C)C3)nc2s1` [Example 8-18, 2-Methyl-1-{(R)-3-[6-propyl-4-(3-trifluoromethyl-5,6-dihydro-8H-[1,2,4]triazolo[4,3-a]pyrazin-7-yl)-thieno[2,3-d]pyrimidin-2-ylamino]-pyrrolidin-1-yl}-propan-1-one], the Ki was 41 nM.
With `CCCc1cc2c(N3CCn4c(nnc4C(F)(F)F)C3)nc(N3CCC[C@@H](NC(C)=O)C3)nc2s1` [Example 7-6, Hydrochloric acid salt of N-{(R)-1-[6-Propyl-4-(3-trifluoromethyl-5,6-dihydro-8H-[1,2,4]triazolo[4,3-a]pyrazin-7-yl)-thieno[2,3-d]pyrimidin-2-yl]-piperidin-3-yl}-acetamide] the Ki was 18 nM.

— US20110166121A1 (LG LIFE SCIENCES LTD., priority 2008, published 2011)
